Test results from PubChem BioAssay AID651630 (Sanford-Burnham Center for Chemical Genomics, 2012).
The source made the active and inactive calls.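 Rule for the calls: active = lipid-stain IC50 at or below a set limit, with nuclear-stain toxicity IC50 at least five times higher; inactive = the rest.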

Assays:
DAPI = experiment: TAG lipid buildup inhibition with viability readout – cell-based, panel, Nile Red and DAPI fluorescence, H9c2, dose response (AID 651630); conditions: H9c2 cells, DAPI nuclear fluorescence (cytotoxicity counter-readout), oleic acid;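 note: cells exposed to compound overnight before fixation and staining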
TAG = experiment: as above; conditions: H9c2 cells, Nile Red TAG fluorescence, oleic acid

| SMILES | IC50 cytotoxicity (DAPI nuclear signal decrease) (DAPI; mean of runs) | IC50 cytotoxicity (DAPI nuclear signal decrease) (DAPI; run 1) | IC50 cytotoxicity (DAPI nuclear signal decrease) (DAPI; run 2) | IC50 (TAG; mean of runs) | IC50 (TAG; run 1) | IC50 (TAG; run 2) |
| --- | --- | --- | --- | --- | --- | --- |
| COc1cc(-c2ccc3oc(-c4cccc(C)c4)c(C#CC4(O)CCCCC4)c3c2)cc(OC)c1OC | > 25 µM (inactive) | > 25 µM | > 25 µM | 15.9 µM (inactive) | 14.2 µM | 17.6 µM |
| COc1cc2c(c(OC)c1OC)-c1ccc(OC)c(=O)cc1C(NC(=O)c1ccccc1)CC2 (stereo not drawn) | > 25 µM (inactive) | > 25 µM | > 25 µM |  | 12.2 µM | > 25 µM |
| Cc1ccc(S(=O)(=O)NC2=C(N3CCN(c4ccccc4F)CC3)C(=O)c3ccccc3C2=O)cc1 | > 25 µM (inactive) | > 25 µM | > 25 µM | 8.82 µM | 8.52 µM | 9.11 µM |
| O=C(Nc1sc2c(c1-c1nc3ccccc3[nH]1)CCCC2)C1CCCC1 | > 25 µM (inactive) | > 25 µM | > 25 µM | 7.22 µM | 4.9 µM | 9.54 µM |
| C=CCNc1nc(Nc2ccc(OC)c(OC)c2)c2sc(-c3ccccc3)cc2n1 | > 25 µM (inactive) | > 25 µM | > 25 µM | 5.16 µM | 7.19 µM | 3.13 µM |
| COc1cc(C#Cc2c(-c3cncn3C)n(C)c3ccc(-c4ccc(OC)c(OC)c4)cc23)cc(OC)c1 | > 25 µM (inactive) | > 25 µM | > 25 µM | 8.76 µM | 8.47 µM | 9.05 µM |
| C[C@@H]1CN([C@H](C)CO)C(=O)c2c(c3ccccc3n2C)-c2ccccc2CO[C@H]1CN(C)Cc1ccc(-c2ccccc2)cc1 | > 25 µM (inactive) | > 25 µM | > 25 µM | 14.9 µM | 9.62 µM | 20.1 µM |
| Cc1cc(N2CCN(Cc3cn(C)nc3-c3ccccc3F)CC2)cc(C)n1 | > 25 µM (inactive) | > 25 µM | > 25 µM | 13.1 µM | 11.1 µM | 15.1 µM |
| COc1ccc(-c2nn(-c3ccccc3)cc2/C=C/C(=O)OCC(=O)Nc2ccccc2C#N)cc1 | > 25 µM (inactive) | > 25 µM | > 25 µM |  | 16.5 µM | > 25 µM |
| c1cc(C2CCCCC2)ccc1Oc1nc(N2CCOCC2)nc(N2CCOCC2)n1 | > 25 µM (inactive) | > 25 µM | > 25 µM | > 25 µM (inactive) | > 25 µM | > 25 µM |
| CC(C)CC(N)c1csc(NC(=O)Nc2ccccc2Cc2ccccc2)n1 (stereo not drawn) |  | 20.4 µM | > 25 µM | > 25 µM (inactive) | > 25 µM | > 25 µM |
| COc1ccc(S(=O)(=O)N2N=C(C)Oc3ccccc3C2=O)cc1 | > 25 µM (inactive) | > 25 µM | > 25 µM | > 25 µM (inactive) | > 25 µM | > 25 µM |
| CCCCSc1nc2ccc(Nc3nc(N4CCOCC4)nc(N4CCOCC4)n3)cc2s1 |  | > 25 µM | > 25 µM | 4.78 µM | 4.98 µM | 4.59 µM |
| COc1ccc2sc(-c3ccc(N(C)C)cc3)c(C#CCO)c2c1 | > 25 µM (inactive) | > 25 µM | > 25 µM | 6.43 µM | 6.72 µM | 6.13 µM |
| Cc1ccc(NC(=O)Cn2nnc(-c3ccccc3NC(=O)c3cccs3)n2)cc1 | > 25 µM (inactive) | > 25 µM | > 25 µM | 5.75 µM | 7.48 µM | 4.02 µM |
| COC(=O)/C=C/c1ccccc1S(=O)(=O)N(Cc1ccccc1)Cc1ccco1 | > 25 µM (inactive) | > 25 µM | > 25 µM | > 25 µM (inactive) | > 25 µM | > 25 µM |
| Brc1ccc(C2=Nn3c(nnc3-c3n[nH]c4c3CCC4)SC2)cc1 | > 25 µM (inactive) | > 25 µM | > 25 µM | 13.8 µM | 9.45 µM | 18.1 µM |
